Molecular target: Ras-related protein Rab-7a (dog), GTP binding
Assay: Rab7 GTP binding inhibitors, potency, dose response, biochemical, wildtype, multiplex bead flow cytometry (AID 1336)
Settings: bead-based flow cytometry, fluorescent GTP binding to Rab7

Question: With `Cc1sc(-n2c(C)cc(C=C3C(=O)NC(=O)NC3=O)c2C)c(C#N)c1C` as the compound, how does the EC50 read?
Answer: 28900 nM

Question: For `N#Cc1c(-c2ccccc2)nc(SCC(=O)Nc2ccccc2)[nH]c1=O`, which EC50 is on record?
Answer: 6420 nM

Question: Which EC50 does the source give for `CC(C)C(NCc1c(Cl)cccc1Cl)C(=O)O` (configuration not stated) here?
Answer: 2230 nM

Question: `O=C(O)c1ccccc1Sc1ncnc2sc3c(c12)CCC3` was tested. Which EC50 did it give?
Answer: 2620 nM

Question: With `O=C(O)c1ccccc1NCCc1ccc(Cl)cc1` as the compound, how does the EC50 read?
Answer: 339 nM

Question: How did the EC50 turn out when `O=C(O)/C=C/c1cn(Cc2ccccc2)nc1-c1cccs1` was run?
Answer: 2350 nM

Question: With `CCOc1ccc(/C=C2\SC(N3CCc4ccccc4C3)=NC2=O)cc1` as the compound, how does the EC50 read?
Answer: 11500 nM

Question: Which EC50 does the source give for `COC(=O)c1cccnc1SCCc1ccccc1` here?
Answer: 14200 nM

Question: With `O=C1CN=C(c2ccccc2)c2cc(Br)ccc2N1Cc1cc(=O)n2ccccc2n1` as the compound, how does the EC50 read?
Answer: 2700 nM

Question: For `Cc1cc(C(=O)Oc2ccccc2C(=O)O)c(C)o1`, which EC50 is on record?
Answer: 810 nM

Question: `Cc1nn(Cc2ccccc2)c(Cl)c1C(=O)O` was tested. Which EC50 did it give?
Answer: 3540 nM

Question: For `Cc1cc(C(=O)O)sc1CNCc1ccccc1Cl`, which EC50 is on record?
Answer: 423 nM
